# Test results from patent publication US20260207632A1, “C[…] THERAPY” (KINGDOM THERAPEUTICS LIMITED, priority 2022, published 2026).
# Tests used:
# rat VPA model of autism [1] = assay: Gastrointestinal permeability (P33), FITC-dextran in plasma, VPA rat model; format: in vivo; parameters: key to gastrointestinal permeability: +: improvement; Ø: no change
# Description: (§1) In the first study, a sub-chronic 8-day dosing schedule was employed with the test compound CBD administered alone (10, 30 and 60 mg/kg, p.o. VPA/CBD; dose volume 5 ml/kg). Control animals were administered sterile saline (0.9% w/v, i.p.) in utero and the vehicle control (ethanol: Kolliphor HS-15:0.9% saline (1:1:18, v/v/v) p.o. VEH/VEH). The test compound and vehicle control were administered to the animals once daily for 7 days prior to, and once again on each day of behavioural assessment, 60 minutes prior to test which consisted of a battery of behavioural paradigms: P30 social play and bottle brush test, P31-32 open field exploratory behaviour. A reference positive control, the atypical antipsychotic risperidone (0.125 mg/kg, i.p., once per day for 8 days prior to and for duration of behavioural testing), was included in study one for comparison. Subsequent to behavioural analysis the effect of CBD on gastrointestinal permeability was evaluated four hours following oral administration of fluorescein isothiocyanate-labelled dextran measured in plasma on postnatal day 33. On postnatal day 34, 60 minutes post a final treatment with the test agents, animals were humanely euthanised and samples collected to evaluate inflammatory biomarkers, gastrointestinal function and histology. 5 In the second study, the sub-optimal dose of CBD (30 mg/kg, p.o.) was evaluated in combination with administration of THC at increasing concentration (0.75, 1.5 and 3 mg/kg, p.o. VPA/CBD+THC). Comparison was made to CBD administered alone at the sub-optimal and effective doses (30 and 60 mg/kg, p.o.) and to vehicle controls as per study one. Behavioural and gastrointestinal readouts were examined as per study one with terminal samples collected on the final day of the experiment.
# This assay is an indirect measure of total intestinal permeability. Animals are given an oral gavage of a fluorescently labelled small molecule (FITC-dextran), and at a subsequent timepoint the difference in fluorescence pre- and post-gavage is measured in plasma (Thevaranjan et al., 2017). Prior to gavage, a 50 μl sample of blood was collected by tail vein puncture. Animals then received 500 μl of 80 mg/ml FITC dextran (4 kDa Merck Ireland) by oral gavage and four hours later a second tail vein blood sample was collected. Tail vein blood sampling is facilitated through use of local anaesthetic EMLA cream following sterilisation of the tail. Blood samples were treated with 15% v/v acid-citrate-dextrose solution as an anticoagulant (38 mM citric acid, 107 mM sodium citrate, 136 mM dextrose), then mixed thoroughly by inversion and centrifuged at 5,000 rpm for 10 minutes. The plasma supernatant was transferred to microfuge tubes stored protected from light at 4° C. Each pre- and post-test plasma sample was diluted 1:5 in 1×PBS and a 100 μl aliquot was transferred to a 96-well plate. Readings of relative fluorescence units by a spectrophotometer were measured in duplicate and averaged. Fluorescence was determined at 530 nm with excitation at 485 nm. Permeability was expressed as relative fluorescence units between the groups being compared, determined by subtracting the PBS blank fluorescence from all samples and then subtracting the post-gavage fluorescence from the pre-gavage fluorescence. Treatment groups were prepared and analysed according to a blocked design to prevent bias.
# rat VPA model of autism [2] = assay: Irritability-like behaviour: bottle-brush test (P30) in VPA rat model; format: in vivo; parameters: key to bottle brush irritability: +: improvement; Ø: no change
# Description: as §1
# To test irritability-like behaviour we employed the bottle-brush test modified for rats (Riittinen et al. 1986). Irritability-like behaviour was examined by measuring aggressive and defensive responses during the bottle-brush test carried out in juvenile animals immediately after play behaviour evaluation at P30. Irritability-like behaviour testing was performed under dark conditions with a red light and infrared camera recording (Kononoff et al., 2018). Testing consisted of 10 trials per rat in plastic cages (377×325×170 mm) with fresh bedding. During each trial, the rat was placed at the back of the cage. A bottle-brush was rotated toward the animal's whiskers (from the front of the cage). The brush was rotated around the whiskers of the rat for approximately 1 second. The brush was then rotated back to the front of the cage where it hung vertically for approximately 2 seconds, during which behavioural responses were recorded. An intertrial interval of 10 seconds was used, with each new trial started with the animal returned to the back of the cage. All testing was conducted in the morning, starting at 09.00 and concluded before 12.00.
# Employing video analysis of the test the following were scored as aggressive responses: smelling the brush, biting the brush (during the initial phase of rotating the brush forward and back to the starting position), boxing the target, following the brush, exploring the brush (using paws or mouth to manipulate the brush without biting or boxing), mounting the brush, and delayed biting (during the 2 s that the brush hung at the starting position). The following were scored as defensive responses: escaping from the brush, digging, burying, jumping, climbing, vocalization, freezing, and grooming. Grooming and digging were additionally recorded during the 10 second intertrial intervals. Frequency and total time engaged in each behaviour and the sum of aggressive and defensive behaviours, referred to as the irritability score (Kononoff et al, 2018), were recorded.
# [3] = cohort two, CBD 30 mg/kg, THC 0 mg/kg p.o.
# [4] = cohort two, CBD 60 mg/kg, THC 0 mg/kg p.o.
# [5] = study one, CBD 30 mg/kg, vs VPA/VEH
# [6] = study one, CBD 60 mg/kg, vs VPA/VEH
# [7] = study one, CBD 10 mg/kg, vs VPA/VEH
# [8] = cohort one, risperidone 0.125 mg/kg i.p.
# [9] = study one, risperidone 0.125 mg/kg i.p.
structure (smiles),measurement,setting,value
"C=C(C)[C@@H]1CCC(C)=C[C@H]1c1c(O)cc(CCCCC)cc1O [CBD, cannabidiol]",gastrointestinal permeability,"rat VPA model of autism [1]; cohort one, CBD 10 mg/kg p.o.",Ø
same,gastrointestinal permeability,"rat VPA model of autism [1]; cohort one, CBD 30 mg/kg p.o.",+
same,gastrointestinal permeability,"rat VPA model of autism [1]; cohort one, CBD 60 mg/kg p.o.",+
same,gastrointestinal permeability,rat VPA model of autism [1]; [3],Ø
same,gastrointestinal permeability,rat VPA model of autism [1]; [4],+
same,increase in FITC dextran fluorescence (gastrointestinal permeability),rat VPA model of autism [1]; [5],significantly prevented
same,increase in FITC dextran fluorescence (gastrointestinal permeability),rat VPA model of autism [1]; [6],significantly prevented
same,increase in FITC dextran fluorescence (gastrointestinal permeability),"rat VPA model of autism [1]; study two, CBD 30 mg/kg",without effect
same,increase in FITC dextran fluorescence (gastrointestinal permeability),"rat VPA model of autism [1]; study two, CBD 60 mg/kg",significantly prevented
same,bottle brush irritability,"rat VPA model of autism [2]; cohort one, CBD 10 mg/kg p.o.",Ø
same,bottle brush irritability,"rat VPA model of autism [2]; cohort one, CBD 30 mg/kg p.o.",+
same,bottle brush irritability,"rat VPA model of autism [2]; cohort one, CBD 60 mg/kg p.o.",+
same,bottle brush irritability,rat VPA model of autism [2]; [3],Ø
same,bottle brush irritability,rat VPA model of autism [2]; [4],+
same,"increase in aggressive responses, bottle brush",rat VPA model of autism [2]; [7],significantly reduced
same,irritability score (combined aggressive and defensive behaviours),rat VPA model of autism [2]; [7],significantly reduced
same,irritability score (combined aggressive and defensive behaviours),rat VPA model of autism [2]; [5],significantly reduced
same,"increase in aggressive responses, bottle brush",rat VPA model of autism [2]; [6],significantly reduced
same,irritability score (combined aggressive and defensive behaviours),rat VPA model of autism [2]; [6],significantly reduced
same,"increase in aggressive responses, bottle brush","rat VPA model of autism [2]; study two, CBD 30 mg/kg",without effect
same,irritability score (combined aggressive and defensive behaviours),"rat VPA model of autism [2]; study two, CBD 30 mg/kg",without effect
same,"increase in aggressive responses, bottle brush","rat VPA model of autism [2]; study two, CBD 60 mg/kg",significantly reduced
same,irritability score (combined aggressive and defensive behaviours),"rat VPA model of autism [2]; study two, CBD 60 mg/kg",significantly reduced
"Cc1nc2n(c(=O)c1CCN1CCC(c3noc4cc(F)ccc34)CC1)CCCC2 [Risperidone, risperidone]",gastrointestinal permeability,rat VPA model of autism [1]; [8],Ø
same,increase in FITC dextran fluorescence (gastrointestinal permeability),rat VPA model of autism [1]; [9],without effect
same,bottle brush irritability,rat VPA model of autism [2]; [8],+
same,"increase in aggressive responses, bottle brush",rat VPA model of autism [2]; [9],significantly reduced
same,irritability score (combined aggressive and defensive behaviours),rat VPA model of autism [2]; [9],significantly reduced
